Experimental data as given in patent publication US20190269801A1 (CEDARS-SINAI MEDICAL CENTER, priority 2016, published 2019).
Where two headings read alike, the source gives them in different places.

How the values were obtained:
Caki-1 cells = test: Apoptosis by caspase 3/7 luminescent assay and western blot in Caki-1 cells; type: cell-based, human; conditions: 24 hours of drug exposure, 8, 16, and 32 μM
Protocol: 10,000-15,000 cells/well are seeded in 96 white wall well plates in 100 microliter medium/per well for 24 h. […] 100 microliters of Caspase-Glo 3/7 assay is added and luminescence is then read. […] 5,000 cells/well are seeded in 96 white wall well plates in 100 microliter medium/per well for 24 h. […] 100 microliters of Caspase-Glo 3/7 assay is added and luminescence is then read.
(§1) Apoptosis was assessed by caspase 3/7 luminescent assay. Cleavage of apoptosis substrates was determined by western blotting. […] Formalin-fixed tumor, liver and kidney sections were stained with H&E and kidney sections were scored semiquantitativey.

ACHN tumors = conditions: equimolar doses i.p. 3 times a week
Protocol: (§2) Tumor size is measured using a formula (length×width^2)/2.
as §1

Renca tumors = conditions: equimolar doses i.p. 3 times a week
Protocol: as §2, §1

mouse kidneys [1] = test: Kidney histopathology in RCC tumor-bearing mice (H&E, semiquantitative score); conditions: i.p. 3 times a week for 4 weeks
Protocol: as §1

[2] = system: B-cell lymphoma cell lines Namalwa, Raji, CA46, Ramos, Daudi; test: Growth and viability of B-cell Burkitt's lymphoma cell lines, MTT, 72 h; type: cell-based, human; conditions: B-cell lymphoma cell lines, 72 h
Protocol: 5,000 cells/well renal cancer cells and 10,000 cells/well lymphoma cells are seeded in 96 well plates in 100 microliter medium/per well for 24 h. […] Renal cancer cells are fixed with 3.7% paraformaldehyde for 15 minutes and are stained with Crystal violet solution (0.5% in 25% methanol) for 30 minutes. After rinsing with water cell layers are dried and decolorized with Sorenson citrate with shaking for 20 minutes. […] Lymphoma cell growth was evaluated using MTT and cells are incubated for 4 hours.
(§3) Induction of apoptosis was assessed using a caspase 3/7 luminescent assay. Cleavage of apoptosis substrates and inhibition of c-myc was determined by western blotting, with images quantified by ImageJ after normalization with GAPDH. […] Formalin-fixed tumor and kidney sections were stained with hematoxylin and esosin and kidney sections scored using a semiquantitative scale designed to assess AKI-associated tubular injury (tubular epithelial cell loss, necrosis, tubular epithelial simplification, intratubular debris, and casts).

[3] = system: Namalwa and Raji cell lines; test: Apoptosis by caspase 3/7 luminescent assay and western blot in BL cell lines; type: cell-based, human; conditions: 24 hours of drug exposure; 8, 16, 32 μM
Protocol: Namalwa cells are cultured in RPMI 1640, 10% fetal bovine serum, 1% PenStrep, and placed in a humidified atmosphere containing 5% CO2 at 37° C. 10,000-15,000 cells/well are seeded in 96 white wall well plates in 100 microliter medium/per well for 24 h. […] 100 microliters of Caspase-Glo 3/7 assay is added and luminescence is then read. Caki-1 cells are cultured in RPMI 1640, 10% fetal bovine serum, 1% PenStrep, and placed in a humidified atmosphere containing 5% CO2 at 37° C. 5,000 cells/well are seeded in 96 white wall well plates in 100 microliter medium/per well for 24 h. […] 100 microliters of Caspase-Glo 3/7 assay is added and luminescence is then read.

[4] = system: Namalwa cell line-derived xenografts; test: NIR-dye-cisplatin uptake in Namalwa xenografts vs organs (NIRF microscopy, IVIS); conditions: in vivo
Text: FIG. 28 depicts in accordance with various embodiments of the invention, B-cell lymphoma cell line (Namalwa) subcutaneus tumor xenografts in NCR-NU mice were extracted after the mice were sacrificed. NIR-dye-cisplatin uptake in tumors were imaged by a near-infrared fluorescence (NIRF) microscopy and IVIS Lumina XR Imaging System.

Namalwa tumors = test: Namalwa xenograft growth in mice; type: in vivo, mouse; conditions: equimolar doses i.p. 3 times a week
mouse kidneys [5] = test: Kidney histopathology, AKI-associated tubular injury score, Namalwa-bearing mice; conditions: i.p. 3 times a week for 4 weeks
Protocol: FIG. 27 depicts in accordance with various embodiments of the invention, formalin-fixed kidney sections are stained with hematoxylin and esosin and scored using a semiquantitative scale designed to assess AKI-associated tubular injury (tubular epithelial cell loss, necrosis, tubular epithelial simplification, intratubular debris, and casts).
as §3

[6] = system: ex vivo expanded CTCs from PC patients and LNCaP and C4-2B cells from mouse bone marrow, 3-D spheroids; test: Viability/apoptosis of PC CTCs and bone marrow-derived LNCaP and C4-2B grown as 3-D spheroids; type: cell-based, human
Protocol: Immortalized PC cell lines (PC3, LNCaP, C4-2, C4-2B, 22Rv1) and 3-D spheroid growth of mouse bone marrow-derived LNCaP and C4-2B and ex vivo expanded CTCs from patients were used. […] Induction of apoptosis was assessed by caspase 3/7 luminescent assay. Growth inhibitory effects were compared between 2-D and 3-D. Senescent luciferase-tagged LNCaP and C4-2B cells from mouse bone marrow regained growth potential when propagated in vitro as 3D spheroids. RPMI medium supplemented with 10% FBS and 1% penicillin/streptomycin was used to grow CTCs in vitro.

[7] = system: ovarian tumor cells OV90 and OVCA433; conditions: in vitro

**Q.** Which results are given for `CC1(C)C(/C=C/C2=C(Cl)C(=C/C=C3/N(CCCCCC(=O)[O][Pt]([NH2])([NH2])([OH])([Cl])[Cl])c4ccccc4C3(C)C)/CCC2)=[N+](CCCCS(=O)(=O)[O-])c2ccccc21` [NIR dye-cisplatin, DZ-1-cisplatin]?
**A.** induction of apoptosis (caspase 3/7, apoptosis related markers) (Caki-1 cells): induced apoptosis; induction of apoptosis (caspase 3/7, apoptosis related markers) (Caki-1 cells; listed as dye-cisplatin): induces apoptosis; tumor growth inhibition (ACHN tumors): tumor growth inhibition and apoptotic nuclear lobulation/fragmentation; tumor growth inhibition (ACHN tumors; listed as dye-cisplatin): more effective than cisplatin; tumor growth inhibition (Renca tumors): tumor growth inhibition and apoptotic nuclear lobulation/fragmentation; tumor growth inhibition (Renca tumors; listed as dye-cisplatin): more effective than cisplatin; kidney toxicity (histopathology) (mouse kidneys [1]): preserved the integrity and normal morphology of mouse kidneys; antitumor effect (in words) [2]: even more potent antitumor effect; induction of apoptosis (caspase 3/7; caspase 9, caspase 3 and PARP) [3]: induces apoptosis; accumulation in cell line-derived xenografts relative to mouse kidneys and lungs [4]: 7-15 times; tumor growth inhibition (Namalwa tumors): more effective than cisplatin; kidney toxicity (histopathology) (mouse kidneys [5]): preserves the integrity and normal morphology of mouse kidneys; sensitivity of cells grown as 3-D spheroids [6]: extremely sensitive; sensitivity of cell growth relative to unconjugated drug [7]: more sensitive
